The source of these data is ChEMBL document CHEMBL5506040, “Design of FK866-Based Degraders for Blocking the Nonenzymatic Functions of Nicotinamide Phosphoribosyltransferase” (J Med Chem, 2024).

For series [1], the target named is Nicotinamide phosphoribosyltransferase (Mus musculus) (UniProt Q99KQ4). As to the kind of experiment: Induction of NAMPT degradation in mouse CT26 cells at 0.1 to 5 uM incubated for 24 hrs by Western blot analysis. Type of series: cell-based. The settings on record: dose 0.1-5 µM.
Chain of Nicotinamide phosphoribosyltransferase (Mus musculus) (Q99KQ4 whole entry, looked up): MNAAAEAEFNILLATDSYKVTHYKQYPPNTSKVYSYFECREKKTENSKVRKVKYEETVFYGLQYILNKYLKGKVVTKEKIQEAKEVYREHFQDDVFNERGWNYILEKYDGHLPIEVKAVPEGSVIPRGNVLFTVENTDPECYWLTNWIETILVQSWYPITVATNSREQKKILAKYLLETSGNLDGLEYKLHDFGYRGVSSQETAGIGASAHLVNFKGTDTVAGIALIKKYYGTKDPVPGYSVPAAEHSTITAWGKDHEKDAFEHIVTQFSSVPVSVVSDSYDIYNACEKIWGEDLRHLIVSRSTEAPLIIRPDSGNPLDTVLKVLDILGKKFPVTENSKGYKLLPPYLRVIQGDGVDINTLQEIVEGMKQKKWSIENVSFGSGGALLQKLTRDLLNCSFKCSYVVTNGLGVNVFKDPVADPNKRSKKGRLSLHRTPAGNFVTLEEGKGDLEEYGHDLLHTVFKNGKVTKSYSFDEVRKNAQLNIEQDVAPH
Series [2] addresses T1, von Hippel-Lindau disease tumor suppressor/Nicotinamide phosphoribosyltransferase (Homo sapiens, UniProt P43490+P40337). As to the kind of experiment: PROTAC activity at VHL/NAMPT in human SK-OV-3 cells assessed as induction of intracellular NAMPT degradation incubated for 24 hrs by Western blot analysis relative to control. In kind it is cell-based.
Series [3] concerns the target T1, von Hippel-Lindau disease tumor suppressor/Nicotinamide phosphoribosyltransferase. As to the kind of experiment: PROTAC activity at VHL/NAMPT in human MKN-45 cells assessed as induction of intracellular NAMPT degradation incubated for 24 hrs by Western blot analysis relative to control. In kind it is cell-based.
The target of series [4] is T2, von Hippel-Lindau disease tumor suppressor/Nicotinamide phosphoribosyltransferase (Mus musculus) (UniProt Q99KQ4+P40338). As to the kind of experiment: (§1) PROTAC activity at VHL/NAMPT in mouse CT26 cells assessed as induction of intracellular NAMPT degradation incubated for 24 hrs by Western blot analysis. Type of series: cell-based. On the technique in general: A western blot detects proteins with antibodies after separation by electrophoresis.
T2 sequence (P40338 whole entry, looked up): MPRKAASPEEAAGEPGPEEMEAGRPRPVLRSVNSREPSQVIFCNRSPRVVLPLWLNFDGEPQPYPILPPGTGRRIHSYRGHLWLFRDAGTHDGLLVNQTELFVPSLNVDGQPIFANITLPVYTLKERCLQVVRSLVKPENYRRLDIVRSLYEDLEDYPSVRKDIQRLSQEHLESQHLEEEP
T2 sequence (Q99KQ4 whole entry, looked up): as the sequence (Q99KQ4 whole entry, looked up) above

Series [5] concerns the target von Hippel-Lindau disease tumor suppressor/Nicotinamide phosphoribosyltransferase (Mus musculus, UniProt Q99KQ4+P40338). Described as §1. In kind it is cell-based.
For series [6], the target named is T2, von Hippel-Lindau disease tumor suppressor/Nicotinamide phosphoribosyltransferase (Mus musculus). As to the kind of experiment: PROTAC activity at VHL/NAMPT in mouse CT26 cells assessed as induction of extracellular NAMPT degradation at 0.1 to 5 uM incubated for 24 hrs by Western blot analysis. In kind it is cell-based. The settings on record: dose 0.1-5 µM.

Series [7] has as its target Nicotinamide phosphoribosyltransferase (Homo sapiens) (UniProt P43490). To be noted: SK-OV-3, dose 100.0 nM, time 24.0 hrs.
The subject of series [8] is CT26. Description: cells. To be noted: Mus musculus, CT26, 72 h.
Description: Cytotoxicity against mouse CT26 cells assessed as inhibition of cell growth incubated for 72 hrs by MTT assay
In series [9] the test system is SK-OV-3. As to the kind of experiment: cells. The settings on record: Homo sapiens, SK-OV-3, 72 h.
Description: Cytotoxicity against human SK-OV-3 cells assessed as inhibition of cell growth incubated for 72 hrs by MTT assay
The subject of series [10] is MIA PaCa-2. Description: cells. The settings on record: Homo sapiens, MIA PaCa-2, 72 h.
Description: Cytotoxicity against human MIA PaCa-2 cells assessed as inhibition of cell growth incubated for 72 hrs by MTT assay
Series [11] has as its target T2, von Hippel-Lindau disease tumor suppressor/Nicotinamide phosphoribosyltransferase (Mus musculus). Description: PROTAC activity at VHL/NAMPT in mouse CT26 cells assessed as induction of extracellular NAMPT degradation incubated for 24 hrs by immunoblot analysis. In kind it is cell-based. The settings on record: dose 0.1-5 µM.
Series [12] shares this target. Description: PROTAC activity at VHL/NAMPT in mouse CT26 cells assessed as induction of intracellular NAMPT degradation incubated for 24 hrs by immunoblot analysis. Type of series: cell-based. The settings on record: dose 0.1-5 µM.
A short description of series [13]: Tmax in male Sprague-Dawley rat at 14 mg/kg, ip measured after 24 hrs by LC/MS-MS analysis. Type of series: ADME, organism-based. The settings on record: in vivo.
A short description of series [14]: Cmax in male Sprague-Dawley rat at 14 mg/kg, ip measured after 24 hrs by LC/MS-MS analysis. In kind it is ADME, organism-based. To be noted: in vivo.
The nature of series [15]: AUC (0 to 24 hrs) in male Sprague-Dawley rat at 14 mg/kg, ip measured after 24 hrs by LC/MS-MS analysis. To be noted: in vivo. Type of series: ADME, organism-based.
Series [16] can be described thus: Half-life in male Sprague-Dawley rat at 14 mg/kg, ip measured after 24 hrs by LC/MS-MS analysis. In kind it is ADME, organism-based. The settings on record: in vivo.
Series [17] is described as follows: Apparent volume of distribution during terminal phase in male Sprague-Dawley rat at 14 mg/kg, ip measured after 24 hrs by LC/MS-MS analysis. Type of series: ADME, organism-based. To be noted: in vivo, read-out: Vz/F.
For series [18], the system named is CT26. Description: Antitumor activity against mouse CT26 cells implanted in immunocompetent female BALB/c mouse model assessed as reduction in tumor growth at 20 mg/kg, ip administered for 30 days. Type of series: functional, organism-based. To be noted: time 30.0 day.
The test system of series [19] is CT26. Description: Antitumor activity against mouse CT26 cells implanted in immunocompetent female BALB/c mouse model assessed as reduction in tumor size at 20 mg/kg, ip administered for 30 days. Type of series: functional, organism-based. To be noted: time 30.0 day.
Series [20] can be described thus: Toxicity in immunocompetent female BALB/c mouse implanted with mouse CT26 cells assessed as body weight loss at 20 mg/kg, ip administered for 30 days. The settings on record: in vivo, 720 h, time 30 day. In kind it is organism-based.
Series [21] is described as follows: Toxicity in immunocompetent BALB/c mouse implanted with mouse CT26 cells assessed as change in spleen size at 20 mg/kg, ip administered for 30 days relative to control group. In kind it is organism-based. To be noted: in vivo, 720 h, time 30 day.
The nature of series [22]: Toxicity in immunocompetent BALB/c mouse implanted with mouse CT26 cells assessed as decrease in spleen index at 20 mg/kg, ip administered for 30 days relative to FK866. Type of series: organism-based. To be noted: in vivo, 720 h, time 30 day.
Series [23] in a line: Toxicity in immunocompetent BALB/c mouse implanted with mouse CT26 cells assessed as effect on liver histopathology at 20 mg/kg, ip administered for 30 days by H and E staining based analysis. In kind it is organism-based. To be noted: in vivo, 720 h, time 30 day.
Series [24] has as its system CT26. Description: Antitumor activity against mouse CT26 cells implanted in immunocompetent female BALB/c mouse model assessed as reduction in IL-6 expression at 20 mg/kg, ip administered for 30 days by ELISA. Type of series: functional, organism-based. The settings on record: time 30.0 day.
Series [25] has as its system CT26. As to the kind of experiment: Antitumor activity against mouse CT26 cells implanted in immunocompetent female BALB/c mouse model assessed as reduction in TNF-alpha expression at 20 mg/kg, ip administered for 30 days by ELISA. In kind it is functional, organism-based. To be noted: time 30.0 day. Background: In an ELISA, binding on a coated surface is turned into a signal by an enzyme label.

The target of series [26] is Protein cereblon/Nicotinamide phosphoribosyltransferase (Homo sapiens) (UniProt P43490+Q96SW2). As to the kind of experiment: PROTAC activity at CRBN/NAMPT in human SK-OV-3 cells assessed as induction of intracellular NAMPT degradation at 0.5 to 5 uM incubated for 24 hrs by Western blot analysis. Type of series: cell-based. To be noted: dose 0.5-5 µM.
Chain of Protein cereblon/Nicotinamide phosphoribosyltransferase (Homo sapiens) (P43490 whole entry, looked up): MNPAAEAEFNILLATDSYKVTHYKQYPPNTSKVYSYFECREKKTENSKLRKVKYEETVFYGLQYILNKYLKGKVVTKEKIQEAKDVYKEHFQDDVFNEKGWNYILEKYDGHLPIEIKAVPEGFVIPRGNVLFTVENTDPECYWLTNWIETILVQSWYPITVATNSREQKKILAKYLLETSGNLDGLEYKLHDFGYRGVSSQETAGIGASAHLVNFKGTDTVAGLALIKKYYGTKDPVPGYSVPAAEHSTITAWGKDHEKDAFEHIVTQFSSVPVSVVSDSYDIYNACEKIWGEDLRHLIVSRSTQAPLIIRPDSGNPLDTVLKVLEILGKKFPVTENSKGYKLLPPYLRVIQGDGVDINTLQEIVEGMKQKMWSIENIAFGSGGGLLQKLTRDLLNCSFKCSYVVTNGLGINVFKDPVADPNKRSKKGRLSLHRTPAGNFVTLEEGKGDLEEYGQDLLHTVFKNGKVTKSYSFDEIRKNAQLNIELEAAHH
Chain of Protein cereblon/Nicotinamide phosphoribosyltransferase (Homo sapiens) (Q96SW2 whole entry, looked up): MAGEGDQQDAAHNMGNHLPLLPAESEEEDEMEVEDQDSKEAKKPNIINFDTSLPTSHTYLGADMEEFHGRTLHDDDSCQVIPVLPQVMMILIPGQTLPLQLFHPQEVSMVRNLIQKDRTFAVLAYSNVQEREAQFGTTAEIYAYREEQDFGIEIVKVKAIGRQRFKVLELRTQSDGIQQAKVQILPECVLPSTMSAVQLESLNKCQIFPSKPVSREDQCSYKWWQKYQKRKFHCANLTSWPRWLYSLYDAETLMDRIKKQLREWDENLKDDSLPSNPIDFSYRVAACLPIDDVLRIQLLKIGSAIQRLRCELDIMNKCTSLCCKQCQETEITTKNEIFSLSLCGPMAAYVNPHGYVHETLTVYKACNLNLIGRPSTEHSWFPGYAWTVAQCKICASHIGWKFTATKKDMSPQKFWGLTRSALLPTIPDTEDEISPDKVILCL
Series [27] is described as follows: Induction of NAMPT degradation in immunocompetent female BALB/c mouse implanted with mouse CT26 cells assessed as reduction in intracellular NAMPT level in tumor by measuring fold change at 20 mg/kg, ip administered for 30 days by Western blot analysis (reference value: 1.00). The settings on record: time 30 day. In kind it is functional.
A short description of series [28]: Toxicity in immunocompetent BALB/c mouse implanted with mouse CT26 cells assessed as punctate necrosis in liver at 20 mg/kg, ip administered for 30 days by H and E staining based analysis. In kind it is organism-based. The settings on record: in vivo, 720 h, time 30 day.

Each structure is given as a SMILES string. The source made the active and inactive calls. A value given as a limit tells only on which side of the number the result lay.

Chain of von Hippel-Lindau disease tumor suppressor/Nicotinamide phosphoribosyltransferase (Mus musculus, UniProt Q99KQ4+P40338) (Q99KQ4 whole entry): as the sequence (Q99KQ4 whole entry, looked up) above
Chain of von Hippel-Lindau disease tumor suppressor/Nicotinamide phosphoribosyltransferase (Mus musculus, UniProt Q99KQ4+P40338) (P40338 whole entry): as the sequence (P40338 whole entry, looked up) above
T1 sequence (P43490 whole entry): as the sequence (P43490 whole entry, looked up) above
T1 sequence (P40337 whole entry): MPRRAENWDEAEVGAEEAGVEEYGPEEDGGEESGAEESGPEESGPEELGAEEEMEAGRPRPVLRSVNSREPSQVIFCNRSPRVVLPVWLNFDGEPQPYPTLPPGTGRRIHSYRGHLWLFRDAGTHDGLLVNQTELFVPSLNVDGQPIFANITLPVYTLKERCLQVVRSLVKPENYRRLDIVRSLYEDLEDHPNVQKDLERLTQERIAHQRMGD
Chain of Nicotinamide phosphoribosyltransferase (Homo sapiens) (P43490 whole entry, looked up): as the sequence (P43490 whole entry, looked up) above

Consider `Cc1ncsc1-c1ccc([C@H](C)NC(=O)[C@H]2C[C@H](O)CN2C(=O)[C@@H](NC(=O)COCCOCCOCCNC(=O)c2ccc(C(=O)N3CCC(CCCCNC(=O)/C=C/c4cccnc4)CC3)cc2)C(C)(C)C)cc1`, for which the outcome in [1] was inactive.

What is called DC50 is the concentration giving 50% degradation. A word on the IC50: it is the concentration needed to halve the response being measured. For `Cc1ncsc1-c1ccc([C@H](C)NC(=O)[C@@H]2C[C@@H](O)CN2C(=O)[C@@H](NC(=O)COCCOCCOCCOCCNC(=O)c2ccc(C(=O)N3CCC(CCCCNC(=O)/C=C/c4cccnc4)CC3)cc2)C(C)(C)C)cc1`, the DC50 is 25 nM in series [2], 6.4 nM in series [3] and 920 nM in series [5]. Moreover, the Activity result in series [4] is “Dose-Dependent Effect”. Moreover, in series [6], the outcome was Active. The inhibition entry in [7] is “Active”. Moreover, the IC50 in series [8] is 23100 nM; in series [9], 890 nM; in series [10], 4 nM.

As a reminder, the Tmax is the time from dosing to the highest level. The term Cmax denotes the highest concentration seen after dosing. A word on the AUC(0-t): it is exposure summed from dosing to a finite time, without extrapolation to infinity. A word on the half-life: it is the time needed for the level to fall by half in the phase considered. A lower half-life goes with fast loss. For `Cc1ncsc1-c1ccc([C@@H](C)NC(=O)[C@H]2C[C@H](O)CN2C(=O)[C@H](NC(=O)COCCOCCOCCNC(=O)c2ccc(C(=O)N3CCC(CCCCNC(=O)/C=C/c4cccnc4)CC3)cc2)C(C)(C)C)cc1`, the Activity entry in series [4] was “Dose-Dependent Effect”; in [11] it was “Dose-Dependent Effect”; in [12], “Dose-Dependent Effect”; in series [20], “Non-Toxic”; in series [21] it was “Non-Toxic”; in series [22], “Toxic”. For the same compound, in [23], the Activity entry is “Non-Toxic”. Moreover, in series [5], the DC50 is 520 nM. The Tmax in series [13] amounted to 1 h. The same compound showed a Cmax in [14] of 147 ng/mL. This compound displayed an AUC(0-t) at 24 h in series [15] of 919 ng·h/mL. Moreover, the half-life in series [16] is 22 h. The Vd/F in series [17] is 0.483 L/kg. Moreover, the result in series [18], in series [19], in series [24] and in [25] was Active. The IC50 in [8] was 25800 nM; in series [9], 1020 nM; in series [10], 4 nM.

`Cc1ncsc1-c1ccc([C@@H](C)NC(=O)[C@@H]2C[C@@H](O)CN2C(=O)[C@@H](NC(=O)COCCOCCOCCOCCNC(=O)c2ccc(CN3CCN(S(=O)(=O)c4ccc(NC(=S)NCc5cccnc5)cc4)CC3)cc2)C(C)(C)C)cc1`: the IC50 in series [8] is over 100000 nM; in [9], 9930 nM.

For `O=C(/C=C/c1cccnc1)NCCCCC1CCN(C(=O)c2ccc(NC(=O)CN3CCN(c4cccc5c4C(=O)N(C4CCC(=O)NC4=O)C5=O)CC3)cc2)CC1` (stereo not given), in series [26], the result was inactive. For the same compound, the IC50 in [9] and in [10] was 4 nM in each case.

Take `O=C(/C=C/c1cccnc1)NCCCCC1CCN(C(=O)c2ccc(C(=O)N3CCC(C(=O)Nc4cccc5c4C(=O)N(C4CCC(=O)NC4=O)C5=O)CC3)cc2)CC1` (stereo not given): in [26], the outcome was inactive. Further, the 50% inhibitory concentration (IC50) in [9] and in series [10] was 4 nM each time.

In the case of `O=C(/C=C/c1cccnc1)NCCCCC1CCN(C(=O)c2ccc(C(=O)N3CCC4(CC3)CC(C(=O)N3CCN(c5cccc6c5C(=O)N(C5CCC(=O)NC5=O)C6=O)CC3)C4)cc2)CC1` (stereo not given), the outcome in [26] was inactive. In addition, the IC50 in series [9] and in [10] was 4 nM each time.

Turning to `O=C(/C=C/c1cccnc1)NCCCCC1CCN(C(=O)c2ccccc2)CC1` [DAPORINAD], in series [27], the “fold change (FC)” value worked out at 1.04. Besides, the results for the Activity result in series [20], in series [21] and in series [28] were “Non-Toxic”, “Toxic” and “Toxic”, respectively. Besides, the figures for the IC50 in series [8] and in [9] were 39 nM and 6 nM, respectively.

For `O=C(/C=C/c1cccnc1)NCCCCC1CCN(C(=O)c2ccc(NC(=O)c3ccc(CN4CCN(c5cccc6c5C(=O)N(C5CCC(=O)NC5=O)C6=O)CC4)cc3)cc2)CC1` (stereo not given), the result in [26] was inactive. For the same compound, the IC50 in series [9] and in series [10] was 4 nM in each case.
